Experimental data reported in PubChem BioAssay AID1208 (EPA DSSTox, 2008).
The source made the active and inactive calls.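 The calls were made as follows: active = at least one rat sex group has a carcinogenic potency value and tumor site recorded; inconclusive = only rat studies were judged inadequate by the national testing program; inactive = no potency or tumor site, with negative rat experiments.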

Tested on: rat chronic carcinogenicity bioassay, TD50
Experiment: DSSTox (CPDBAS) Carcinogenic Potency Database Summary Rat Bioassay Results
Details: for Potency: stronger effect = lower value
Text: The Carcinogenic Potency Database (CPDB) is a unique and widely used international resource of the results of over 6500 chronic, long-term animal cancer tests on over 1500 chemical substances. The CPDB provides easy access to the bioassay literature, with qualitative and quantitative analyses of both positive and negative experiments that have been published over the past 50 years in the general literature and by the National Cancer Institute/National Toxicology Program. The CPDB standardizes the diverse literature of cancer bioassays that vary widely in protocol, histopathological examination and nomenclature, and in the published author's choices of what information to provide in their papers. Results are reported in the CPDB for tests in rats, mice, hamsters, dogs, and nonhuman primates, and are based on the most positive result among all experiments for each sex-species. The DSSTox CPDBAS (all species) file incorporates data from the CPDB Summary Tables for the full list of over 1500 chemical substances tested in at least one species. Summary bioassay results for Rat (TD50, tumor sites, male, female, both sexes) are provided in the CPDB Summary Tables and the DSSTox CPDBAS file for over 1200 chemical substances.
TD50 is a standardized quantitative measure of carcinogenic potency (analogous to an LD50) and is reported in the CPDB Summary Table for each species. Activity Score for actives is computed by mapping of LOG10 (1/TD50_Rat_mmol) activity values spanning range [MIN, MAX] onto Integer 1-100 Activity Score range, where 100 is highest potency and 1 is lowest: Activity Score = 100 * INTEGER[(log10(1/Activity) - MIN)/(MAX - MIN)]. If activity is reported but no TD50_Rat_mmol value is computed, such as for a mixture, the Activity Score is assigned the activity value "50". […] Target sites are reported for each sex-species group with a positive result in the CPDB on the basis of a positive author's opinion for the particular site, using all results from both the general literature and NCI/NTP bioassays. If a chemical has two or more target sites listed, the results may be from different experiments, and a single site may be a target organ in more than one experiment, as well. Blank entry in TargetSites field indicates no results reported.

[1] = TD50_Rat_Note: no positive results, TargetSites_Rat_Female: no positive results
[2] = TD50_Rat_Note: TD50 is harmonic mean of more than one positive test, TargetSites_Rat_Female: liver
[3] = TargetSites_Rat_Female: no positive results
[4] = TargetSites_Rat_Female: mammary gland
[5] = TD50_Rat_Note: no positive results
[6] = TD50_Rat_Note: TD50 is harmonic mean of more than one positive test, TargetSites_Rat_Female: stomach

With `COc1cc2c(c3c1c(=O)c1ccccc1n3C)C=CC(C)(C)O2` the Potency (TD50_Rat_Note: positive test results only by intraperitoneal or intravenous injection, TD50 is harmonic mean of more than one positive, TargetSites_Rat_Female: mammary gland, peritoneal cavity) was 0.505 mg/kg/day.
`CCOc1ccc(NC(C)=O)cc1[N+](=O)[O-]` was tested, and the outcome [1] was “inactive; no positive results”.
Compound `Cc1ccc(N=Nc2c(O)c(S(=O)(=O)O)cc3ccc(S(=O)(=O)O)cc23)c(C)c1` has a Potency (TD50_Rat_Note: TD50 value less than the reported upper confidence limit, TD50 is harmonic mean of more than one positive test, harmonic, TargetSites_Rat_Female: liver) of 415 mg/kg/day.
With `CCCCCCCC(=O)OCC(COC(=O)CCCCCCC)OC(=O)CCCCCCC` the Potency was 5490 mg/kg/day.
`C[C@]12CC[C@H](O)CC1=CC[C@@H]1[C@@H]2CC[C@]2(C)C(=O)CC[C@@H]12` gave a Potency [2] of 83.5 mg/kg/day.
For `CC1=C(C(=O)OCCN(Cc2ccccc2)c2ccccc2)C(c2cccc([N+](=O)[O-])c2)C(P2(=O)OCC(C)(C)CO2)=C(C)N1` (configuration not stated), the outcome [1] was “inactive; no positive results”.
With `CC(C)[N+](=O)[O-]` the outcome [1] was “inactive; no positive results”.
`Cc1ccc(C)c(C)c1` was tested, and the Potency [3] was 4350 mg/kg/day.
With `CC1CN(/N=C/c2ccc([N+](=O)[O-])o2)C(=O)N1` (configuration not stated) the Potency [4] was 5.34 mg/kg/day.
With `CN1C(C(=O)Nc2ccccn2)=C(O)c2sc(Cl)cc2S1(=O)=O` the outcome [1] was “inactive; no positive results”.
With `CCC(C(=O)NC(N)=O)c1ccccc1` (configuration not stated) the outcome [5] was “inactive; no positive results”.
In the case of `O=c1cc[nH]c(=S)[nH]1`, the Potency (TD50_Rat_Note: TD50 is harmonic mean of more than one positive test, TargetSites_Rat_Female: thyroid gland) is reported as 11.9 mg/kg/day.
Compound `CN(C)NC(=O)CCC(=O)O` has a Potency (TD50_Rat_Note: no positive results are statistically significant, TargetSites_Rat_Female: uterus) of 2500 mg/kg/day.
In the case of `Cc1ccc(S(=O)(=O)Oc2ccc(N=Nc3ccc(-c4ccc(N=Nc5c(O)ccc6cc(S(=O)(=O)O)cc(S(=O)(=O)O)c56)c(C)c4)cc3C)cc2)cc1`, the Potency (TD50_Rat_Note: TD50 is harmonic mean of more than one positive test, TargetSites_Rat_Female: clitoral gland, ear Zymbals gland, large intestine, liver, lung, oral cavity, skin, small intestine) is reported as 3.89 mg/kg/day.
With `CN(C)CCN(Cc1cccs1)c1ccccc1` the outcome [1] was “inactive; no positive results”.
For `O=S(=O)(O)c1c(N=Nc2c(O)ccc3ccccc23)ccc2ccccc12`, the outcome [1] was “inactive; no positive results”.
In the case of `CCN(Cc1cccc(S(=O)(=O)O)c1)c1ccc(C(=C2C=CC(=[N+](CC)Cc3cccc(S(=O)(=O)O)c3)C=C2)c2ccc(O)cc2S(=O)(=O)[O-])cc1`, the outcome [1] is reported as “inactive; no positive results”.
Compound `CC(C)CCC[C@@H](C)[C@H]1CC[C@H]2[C@@H]3CC=C4C[C@@H](OC(=O)Cc5ccc(N(CCCl)CCCl)cc5)CC[C@]4(C)[C@H]3CC[C@]12C` has a Potency [4] of 0.523 mg/kg/day.
Compound `[K+]` has a Potency (TD50_Rat_Note: TD50 is harmonic mean of more than one positive test, TargetSites_Rat_Female: oral cavity) of 440 mg/kg/day.
`Cc1ccc(C)c(OCCCC(C)(C)C(=O)O)c1` showed a Potency [1] of 247 mg/kg/day.
For `C=Cc1ccccc1`, the Potency [4] was 23.3 mg/kg/day.
`CCCCCN(CCCCC)N=O` showed a Potency [2] of 4.03 mg/kg/day.
`Cc1cc(N=Nc2ccccc2C)ccc1N` gave a Potency [2] of 4.04 mg/kg/day.
In the case of `NC(=O)CI`, the outcome [5] is reported as “inactive; no positive results”.
With `CNC[C@H](O)c1cccc(O)c1` the outcome [1] was “inactive; no positive results”.
`CC(C)(C)NCC(O)c1ccc(O)c(CO)c1` (configuration not stated) gave a Potency (TD50_Rat_Note: TD50 is harmonic mean of more than one positive test, TargetSites_Rat_Female: mesovarium) of 40 mg/kg/day.
`CC(C(O)c1ccccc1)N(C)N=O` (configuration not stated) showed a Potency of 95.2 mg/kg/day.
`CCC1(CC)C(=O)N=C(O)NC1=O` showed a Potency (TD50_Rat_Note: TD50 is harmonic mean of more than one positive test, TargetSites_Rat_Female: no positive results) of 45.7 mg/kg/day.
`CCN(CC)C(=O)Nc1ccc(OCC(O)CNC(C)(C)C)c(C(C)=O)c1` (configuration not stated) was tested, and the outcome [1] was “inactive; no positive results”.
For `S=C=NCCCc1ccccc1`, the outcome [5] was “inactive; no positive results”.
In the case of `CCC(CC)[N+](=O)[O-]`, the Potency is reported as 2.37 mg/kg/day.
In the case of `CC(C)C(C(=O)OC(C#N)c1cccc(Oc2ccccc2)c1)c1ccc(Cl)cc1` (configuration not stated), the outcome [1] is reported as “inactive; no positive results”.
For `CC[C@H](C)C(=O)O[C@H]1C[C@@H](C)C=C2C=C[C@H](C)[C@H](CC[C@@H]3C[C@@H](O)CC(=O)O3)[C@H]21`, the outcome [1] was “inactive; no positive results”.
With `CN=C(N)N` the outcome [5] was “inactive; no positive results”.
For `C=Cc1cccc(C)c1`, the outcome [1] was “inactive; no positive results”.
In the case of `CC(=O)Nc1ccc(OCC(O)CNC(C)C)cc1` (configuration not stated), the outcome [1] is reported as “inactive; no positive results”.
Compound `CN(C)CCOC(C)(c1ccccc1)c1ccccn1` (configuration not stated) has a Potency [3] of 1610 mg/kg/day.
Compound `Cc1ccc(N)cc1N` has a Potency (TD50_Rat_Note: TD50 is harmonic mean of more than one positive test, TargetSites_Rat_Female: liver, mammary gland) of 2.47 mg/kg/day and a Potency of 4.42 mg/kg/day.
In the case of `Cc1cccc(C)c1N`, the outcome [5] is reported as “inactive; no positive results”.
For `Oc1ccc(Cl)cc1Cl`, the outcome [1] was “inactive; no positive results”.
With `NNc1nc(-c2ccc([N+](=O)[O-])cc2)cs1` the Potency (TD50_Rat_Note: TD50 is harmonic mean of more than one positive test, TargetSites_Rat_Female: mammary gland) was 3.21 mg/kg/day.
For `O=C1c2ccccc2C(=O)N1SC(Cl)(Cl)Cl`, the outcome [1] was “inactive; no positive results”.
`CCN=[N+]([O-])CC` gave a Potency of 0.022 mg/kg/day.
`ClCC1CO1` (configuration not stated) showed a Potency [6] of 2.96 mg/kg/day.
With `CN(Cc1cnc2nc(N)nc(N)c2n1)c1ccc(C(=O)N[C@@H](CCC(=O)O)C(=O)O)cc1` the outcome [1] was “inactive; no positive results”.
`COP(=O)(OC)OC=C(Cl)Cl` gave a Potency [3] of 4.16 mg/kg/day.
With `OCC(O)CCl` (configuration not stated) the outcome [1] was “inactive; no positive results”.
Compound `Nc1ccc2ccccc2c1` has a Potency (TargetSites_Rat_Female: urinary bladder, TargetSites_Rat_BothSexes: no positive results) of 61.6 mg/kg/day.
`CCCCCCCCCCCN(C)N=O` showed a Potency of 2.37 mg/kg/day.
In the case of `O=c1ccc(=O)[nH][nH]1`, the outcome [1] is reported as “inactive; no positive results”.
For `Nc1cccc2c(N)cccc12`, the Potency (TargetSites_Rat_Female: clitoral gland, uterus) was 69.6 mg/kg/day.
With `C=C1CC[C@H](O)C/C1=C/C=C1\CCC[C@]2(C)[C@@H]([C@H](C)CC[C@@H](O)C(C)(C)O)CC[C@@H]12` the outcome [5] was “inactive; no positive results”.
Work on `C[C@H]1CCCCN1N=O` yielded a Potency (TargetSites_Rat_BothSexes: nervous system) of 13.2 mg/kg/day.
With `CC(=O)OC/C=C(C)/C=C/C=C(C)/C=C/C1=C(C)CCCC1(C)C` the Potency (TD50_Rat_Note: TD50 is harmonic mean of more than one positive test, TargetSites_Rat_Female: adrenal gland) was 125 mg/kg/day.
Compound `CC(COc1ccc(C(C)(C)C)cc1)OS(=O)OCCCl` (configuration not stated) has a Potency (TD50_Rat_Note: TD50 is harmonic mean of more than one positive test, TargetSites_Rat_BothSexes: liver) of 96.7 mg/kg/day.
`Cc1ccc([N+](=O)[O-])cc1` was tested, and the Potency (TargetSites_Rat_Female: clitoral gland) was 257 mg/kg/day.
`O=NN1CCOCC1` showed a Potency (TD50_Rat_Note: TD50 is harmonic mean of more than one positive test, TargetSites_Rat_Female: liver, vascular system) of 0.109 mg/kg/day.
For `O=[N+]([O-])c1ccc2nc[nH]c2c1`, the outcome [1] was “inactive; no positive results”.
In the case of `Nc1ncn([C@@H]2O[C@H](CO)[C@@H](O)[C@H]2O)c(=O)n1`, the Potency (TD50_Rat_Note: positive test results only by intraperitoneal or intravenous injection, TargetSites_Rat_Female: NTP bioassay inadequate) is reported as 0.17 mg/kg/day.
`CCCCOCCO` was tested, and the outcome [1] was “inactive; no positive results”.
Compound `CC(=O)Nc1ccc2c(c1)C(=O)c1ccccc1-2` has a Potency (TargetSites_Rat_Female: ear Zymbals gland, liver, mammary gland) of 6.17 mg/kg/day.
`NC(N)=Nc1nc(CSCCNc2nsnc2N)cs1` showed a Potency [6] of 4990 mg/kg/day.
Work on `O=Nc1ccc(NO)cc1` yielded a Potency (TargetSites_Rat_Female: urinary bladder) of 106 mg/kg/day.
For `CC(C)CN(N=O)C(N)=O`, the Potency (TargetSites_Rat_Female: small intestine) was 4.73 mg/kg/day.
In the case of `OC[P+](CO)(CO)CO`, the outcome [1] is reported as “inactive; no positive results”.
`CC(CN1c2ccccc2Sc2ccccc21)N(C)C` (configuration not stated) was tested, and the outcome [1] was “inactive; no positive results”.
In the case of `CCCOC(=O)c1cc(O)c(O)c(O)c1`, the outcome [1] is reported as “inactive; no positive results”.
For `O=[N+]([O-])c1cc([As](=O)(O)O)ccc1O`, the outcome [1] was “inactive; no positive results”.
With `O=C(O)CCl` the outcome [1] was “inactive; no positive results”.
`FC(F)(F)C(Cl)Cl` gave a Potency (TD50_Rat_Note: TD50 is harmonic mean of more than one positive test, greater than ten-fold variation among TD50 values for positive res, TargetSites_Rat_Female: liver) of 2370 mg/kg/day.
In the case of `CCC1(c2ccccc2)C(=O)NCNC1=O`, the outcome [1] is reported as “inactive; no positive results”.
For `CCCCCCOc1cc(C)c(O)c(C)c1C`, the outcome [1] was “inactive”.
`CNCCC(Oc1ccc(C(F)(F)F)cc1)c1ccccc1` (configuration not stated) was tested, and the outcome [1] was “inactive; no positive results”.
For `Nc1ccc2cc3ccc(N)cc3nc2c1`, the outcome (TD50_Rat_Note: only experiment is NCI/NTP bioassay inadequate, TargetSites_Rat_Female: NTP bioassay inadequate) was “ntp bioassay inadequate”.
With `CCCCCCCCCCCC[N+](C)(C)[O-]` the outcome [1] was “inactive; no positive results”.
For `CC/C(=C(\c1ccccc1)c1ccc(OCCN(C)C)cc1)c1ccccc1`, the Potency (TD50_Rat_Note: TD50 is harmonic mean of more than one positive test, harmonic mean of TD50 includes a value for upper 99% confidence li, TargetSites_Rat_Female: liver) was 3.96 mg/kg/day.
